These are literature values, as cited in patent publication US8293900B2, “Acylated spiropiperidine derivatives as melanocortin-4 receptor modulators” (Merck Sharp & Dohme Corp, priority 2005, dated 2012).

For data set [1] the following is noted: oral route.
The conditions of data set [2]: injected intramuscularly or subcutaneously, males with psychogenic erectile dysfunction.

With “Ac-Nle-c[Asp-His-DPhe-Arg-Trp-Lys]-NH2 [MT-II]”, in data set [1], the “absorption into the systemic circulation” value is on record as “not absorbed into the systemic circulation”. Besides, the response rate in data set [2] was 75%.
